In article PMC8518066, “Efficient Entropy‐Driven Inhibition of Dipeptidyl Peptidase III by Hydroxyethylene Transition‐State Peptidomimetics” (Chemistry (Weinheim an Der Bergstrasse, Germany), 2021):
Changes are numbered by the printed parent chain. pIC50, pKd: −log10 of the molar value. Where two headings read alike, the source gives them in different places. One block for each molecule: values may come before it.

Assays:
hDPP3 [1] = target: T1, hDPP3 (Homo sapiens, UniProt Q9NY33); assay: Fluorescence-based competitive enzyme inhibition assay (degradation of H-Arg-Arg-βNA substrate); type: biochemical; settings: for pIC50: hDPP3, H-Arg-Arg-βNA substrate, 37 °C, pH 8.0
T1 construct: His6 (cleaved yes); made in house; host or cells: E. coli BL21-CodonPlus (DE3) RIL
T1 sequence (Q9NY33 1-726): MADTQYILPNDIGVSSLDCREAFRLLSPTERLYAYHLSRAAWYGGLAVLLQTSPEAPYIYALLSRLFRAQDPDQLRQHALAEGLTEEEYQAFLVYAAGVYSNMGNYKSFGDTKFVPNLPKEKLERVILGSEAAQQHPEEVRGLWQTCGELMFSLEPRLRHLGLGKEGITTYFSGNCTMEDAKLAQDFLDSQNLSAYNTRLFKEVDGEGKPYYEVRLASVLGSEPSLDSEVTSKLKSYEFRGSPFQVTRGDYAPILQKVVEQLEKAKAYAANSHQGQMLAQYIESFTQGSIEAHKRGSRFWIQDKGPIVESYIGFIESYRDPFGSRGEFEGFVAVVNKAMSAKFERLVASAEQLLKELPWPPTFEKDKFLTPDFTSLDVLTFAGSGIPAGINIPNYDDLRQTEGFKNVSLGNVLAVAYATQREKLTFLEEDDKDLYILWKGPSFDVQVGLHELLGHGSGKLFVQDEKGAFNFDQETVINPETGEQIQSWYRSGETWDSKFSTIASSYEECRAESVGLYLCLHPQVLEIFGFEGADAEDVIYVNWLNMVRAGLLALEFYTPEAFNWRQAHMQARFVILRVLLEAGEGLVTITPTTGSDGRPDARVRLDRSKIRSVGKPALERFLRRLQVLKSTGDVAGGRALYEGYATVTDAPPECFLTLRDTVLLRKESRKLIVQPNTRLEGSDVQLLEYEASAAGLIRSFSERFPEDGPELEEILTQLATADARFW

placental DPP3 = test system: placental DPP3; design: method as in PMID 9711218; settings: placental DPP3, H-Arg-Arg-βNA substrate; cited from earlier work
Mammalian DPP3 = test system: Mammalian DPP3; design: method as in PMID 7931295, PMID 9425109; settings: cited from earlier work
[2] = test system: DPP3 in mouse brain homogenate; assay: Ex vivo DPP3 inhibition in mouse brain homogenate; type: biochemical; settings: Figure SI1
[3] = target: T2, hDPP3 (inactive variant E451A) (Homo sapiens, UniProt Q9NY33, E451A); assay: Isothermal titration calorimetry (ITC); type: binding; settings: mean of three independent measurements; for pKd: hDPP3 E451A, 298 K
T2 construct: His6 (cleaved yes); made in house; host or cells: E. coli BL21-CodonPlus (DE3) RIL
T2 sequence (Q9NY33 1-726 E451A): T1 sequence (Q9NY33 1-726) with E451A

hDPP3 [4] = target: T1, hDPP3; assay: Time-dependent inhibition of hDPP3 by tynorphin and HER; type: biochemical; settings: inhibitor at 5 times IC50, room temperature, 0-24 h
hDPP3 [5] = target: T1, hDPP3; assay: Thermal shift assay (Thermofluor); type: binding; settings: 10 µM hDPP3, 50 µM HER

Molecule: CC(C)[C@H](N)C(=O)N[C@@H](C(C)C)[C@H](O)C[C@@H](Cc1ccc(F)cc1)C(=O)N1CCC[C@H]1C(=O)N[C@@H](Cc1c[nH]c2ccccc12)C(=O)O
melting point: 168 to 170 °C

Molecule: CC1C(=O)c2cc(O)c3c(c2C(O)C1O)C(=O)c1cccc(O)c1-3 (stereo not shown) [B, fluostatins A and B]
pIC50 (placental DPP3): 4.13

Molecule: O=c1oc(Cl)c(Cl)c2ccccc12 [DCI, 3,4‐dichloroisocoumarin]
inhibition of mammalian DPP3 (Mammalian DPP3; covalently binding serine peptidase inhibitors): significantly inhibited

Molecule: O=S(=O)(F)Cc1ccccc1 [PMSF, phenylmethanesulfonylfluoride]
inhibition of mammalian DPP3 (Mammalian DPP3): significantly inhibited

Molecule: Cc1ccc(S(=O)(=O)N[C@@H](Cc2ccccc2)C(=O)CCl)cc1 [TPCK, tosyl‐phenylalanyl chloromethyl ketone]
inhibition of mammalian DPP3 (Mammalian DPP3): significantly inhibited

Molecule: Cc1cc(=O)c2c(cc(O)c3c4c(O)cccc4c(=O)c32)c1=O [fluostatins A]
pIC50 (placental DPP3): 5.84

Molecule: tynorphin [reference compound]
time-dependent inhibition of hDPP3 (stability against the peptidase) (hDPP3 [4]): lost its efficacy within the first hour

Continued, in another order:

melting point: 160 to 162 °C
Molecule: Cc1ccc(C[C@H](C[C@@H](O)[C@@H](NC(=O)[C@@H](N)C(C)C)C(C)C)C(=O)N2CCC[C@H]2C(=O)N[C@@H](Cc2c[nH]c3ccccc23)C(=O)O)cc1

melting point: 172 to 174 °C
Molecule: CC(C)[C@H](N)C(=O)N[C@@H](C(C)C)[C@H](O)C[C@@H](Cc1ccc(O)cc1)C(=O)N1CCC[C@H]1C(=O)N[C@@H](Cc1c[nH]c2ccccc12)C(=O)O

pIC50 (hDPP3 [1]): 4.46
melting point: 160 to 162 °C
Molecule: CC(C)[C@H](N)C(=O)N[C@@H](C(C)C)[C@H](O)C[C@@H](Cc1ccccc1)C(=O)N1CCCC[C@H]1C(=O)N[C@@H](Cc1c[nH]c2ccccc12)C(=O)O [37 a]

melting point: 164 to 166 °C
Molecule: CC(C)[C@H](NC(=O)[C@@H](N)C(C)(C)C)[C@H](O)C[C@@H](Cc1ccccc1)C(=O)N1CCCC[C@H]1C(=O)N[C@@H](Cc1c[nH]c2ccccc12)C(=O)O [37 b]

potency relative to SHE (IC50 ratio) (hDPP3 [1]; HER versus SHE): 7 fold
pIC50 (hDPP3 [1]): 4.86
pKd [3]: 4.96
-TΔS [3]: -16.0 kcal/mol
ΔH [3]: 10.7 kcal/mol
Melting temperature (Tm) of hDPP3+HER (hDPP3 [5]; t=0 h of incubation): 57.5 °C
Melting temperature (Tm) of hDPP3+HER (hDPP3 [5]; t=24 h of incubation): 57 °C
melting point: 148 to 152 °C
Molecule: CC(C)C(N)C(=O)NC(C(C)C)C(O)CC(Cc1ccccc1)C(=O)N1CCCC1C(=O)NC(Cc1c[nH]c2ccccc12)C(=O)O (stereo not shown) [HER]
inhibition of DPP3 in mouse brain homogenate [2]: efficiently inhibit DPP3 in mouse brain homogenate without losing much of its potency
time-dependent inhibition of hDPP3 (stability against the peptidase) (hDPP3 [4]): efficiently inhibit the activity over a period of 24 h

pIC50 (hDPP3 [1]): 4.01
pKd [3]: 4.64
-TΔS [3]: -8.1 kcal/mol
ΔH [3]: 2.3 kcal/mol
Molecule: CC(C)[C@H](N)C(=O)N[C@@H](C(C)C)[C@@H](O)C[C@@H](Cc1ccccc1)C(=O)N1CCC[C@H]1C(=O)N[C@@H](Cc1c[nH]c2ccccc12)C(=O)O [SHE]

pIC50 (hDPP3 [1]): 4.75
melting point: 148 to 150 °C
Molecule: COC(=O)[C@H](Cc1c[nH]c2ccccc12)NC(=O)[C@@H]1CCCN1C(=O)[C@H](Cc1ccc(O)cc1)C[C@@H](O)[C@@H](NC(=O)[C@@H](N)C(C)C)C(C)C [compound 32]
